# Experimental data: patent US20220288130A1, “COMPOSITIONS AND METHODS FOR DIAGNOSIS AND TREATMENT OF METABOLIC DISEASES AND DISORDERS” (University of Louisville Research Foundation, Inc., priority 2019, published 2022)
# Tests used:
# [1] = tested on: mouse hepatocytes (FL83B cells); assay: Glucose uptake assay (Glucose Uptake-Glo); type: cell-based; conditions: two-log difference in PC (34:2) concentration
# Description: Glucose uptake assay. Glucose uptake was performed using the Glucose Uptake-Glo™ Assay from Promega (J1341) in accordance with the manufacturer's instructions. Briefly, 2×10^4 cells were seeded into 96 well tissue culture plate in complete medium. […] Cells were treated with 1 nM of insulin for an additional 1 hour. Medium was removed and cells were washed twice with PBS. 50 μof 2-deoxyglucose (DG, 1 mM per well) was added and incubated for 1 hour at room temperature (RT). 25 μl of stop buffer added and mixed briefly, then 25 μl of neutralization buffer added and shaken briefly. 100 μl of 2DG6P detection reagent was added and the mixture shaken for 3 hours at RT. Luminescence was recorded with 135 gain efficiency using a SYNERGY H1 (BioTek Instruments, Inc., Winooski, Vt.) luminometer. […] These supernatants (0.5 ml) were further used in hepatocyte (cultured with 0.5×10^6 fecal exosomes) cultures to determine the which cytokines were induced by fecal exosome treatment of macrophages.
# AhR in FL83B cells = assay: AhR and pAhR expression in hepatocytes (western blot); type: cell-based, mouse
# Description: Cells. Murine hepatocytes (FL83B) and human hepatocytes (HepG2) (obtained from the American Type Culture Collection, ATCC®, Manassas, Va.) were grown in tissue culture plates with F12K medium (Thermo Fisher Scientific,) supplemented with 10% heat-inactivated fetal bovine serum (FBS), 100 U ml-1 penicillin, and […] streptomycin at 37° C. in a 5% CO2 atmosphere. Human monocytes (U937) were grown in RPMI 1640 medium (Thermo Fisher Scientific, Waltham, Mass.) supplemented with 10% FBS. For fecal exosomes (with or without PKH26 labeling) treatment for FL83B and HepG2 cells, 2×10^4 cells were seeded into six well plates. After achieving 50-60% confluence, fecal exosomes (numbers indicated in Figures) were added and incubated for 16 hours at 37° C. in a 5% CO2 atmosphere. Cells were washed with PBS and processed for imaging, RNA isolation, and protein extraction. […]
# Western blot analysis. […] Protein concentrations were determined using the BioRad Protein Assay Reagent. […] Individual protein was detected with specific antibodies and visualized by infrared fluorescent secondary antibodies (Table 2). The protein bands were visualized and analyzed on an Odyssey CLx Imager (LiCor Inc, Lincoln, Nebr.).
substance,measurement,setting,value
phosphatidylcholine [PC (34:2)],"glucose uptake, dose dependence",[1],inhibited in a PC-dose dependent manner
same,AhR expression in hepatocytes,AhR in FL83B cells,confirmed in a PC-dose dependent manner
